Here are results for one molecule from patent publication US20180049996A1, “THERAPEUTIC AGENT FOR CHRONIC RESPIRATORY DISEASE AND COMPOSITION FOR INHIBITING CARDIAC FIBROSIS” (NIPPON HYPOX LABORATORIES INCORPORATED, priority 2015, published 2018).

The assay has as its system sputum excretion. The assay can be described thus: Sputum excretion action (phenol red excretion from trachea sections, method of Engler et al.). The class given is in vivo, male ICR mice. The conditions noted are these: ambroxol 250 mg/kg oral single dose; relative to negative control; significant increase. On the procedure:
The hydroquinone derivative of the present invention was orally administered to 8 week old male ICR mice in a single dose, and the sputum excretion action was evaluated according to the method of Engler et al. (Engler H, Szelenyi I, J.Pharmacol. Moth. 11, 151-157, 1984).
Specifically, the test was conducted as follows. The test material was orally administered to the mice in the control group and the test groups, i.e., an aqueous solution of 2% gum arabic was administered to the mice in the negative control group, and 2,3,5-trimethylhydroquinone-1-hexyl ether (HTHQ), the test substance, was orally administered to the mice in the HTHQ-administered groups at 100 mg/kg body weight, 200 mg/kg body weight and 400 mg/kg body weight, respectively. Ambroxol (a product from Sigma-Aldrich) was orally administered to the mice in the ambroxol administered group at 250 mg/kg body weight. Here, ambroxol is a substance having expectoration action and has been selected as a positive control substance. 30 minutes after the oral administration of the test material, saline in which phenol red (a product from Sigma-Aldrich) was dissolved at a concentration of 0.05 g/mL was intraperitoneally administered at 15 mL/kg. Then, 30 minutes after the administration of phenol red, the mice were euthanized by inhalation of carbon dioxide, and the tracheae were extirpated. Given sites of the extirpated tracheae were cut into sections of fixed size to obtain trachea sections. The obtained trachea sections were added to centrifugation tubes, and 1 mL of saline was added there, and the mixture was sonicated using a ultrasonic washing machine for 15 minutes. After the centrifugation of 5 minutes at 10000 rpm, 0.5 mL of a upper layer solution was dispensed to the centrifugation tubes and 0.05 mL of 1 N sodium hydroxide was added to the tubes. After stirring with a vortex mixer, 0.2 mL of a sample was dispensed to a 96 well plate, and absorbance was measured at 546 nm using a micro plate reader (a product from BioTek Instruments, Inc). The amounts of phenol red excreted from the trachea sections of the mice in the control group and test groups were calculated by extrapolating the measured absorbance to the standard curve based on the absorbance of phenol red reference standard ([…], 2.3 and 1.2 ng/mL). The amounts of phenol red excreted from the trachea sections were substituted in the following formula to calculate the sputum excretion ability of the test material. The formula to calculate the sputum excretion ability is as follows: “sputum excretion ability(%)={(A/B)−1}×100” wherein A is the amounts of phenol red of the test material administered groups (an average) and B is the amount of phenol red of the negative control group (an average).

`Nc1c(Br)cc(Br)cc1CN[C@H]1CC[C@H](O)CC1` [ambroxol, Ambroxol, reference compound] showed a sputum excretion ability of 41.1%.
